This is an account of results in PMC7584369, “Di-bromo-Based Small-Molecule Inhibitors of the PD-1/PD-L1 Immune Checkpoint” (Journal of Medicinal Chemistry, 2020).

The test system of one data set is PD-L1. Particulars: several independent biophysical and cell-based assays; cited from earlier work.
A further data set deals with T1, murine PD-L1 (Mus musculus, UniProt Q9EP73).
T1 construct: mPD-L1 residues, 19–134; made in house; host or cells: Escherichia coli BL21 (DE3)
In words: MicroScale Thermophoresis (MST) binding assay, murine PD-L1. To be noted: mPD-L1. (Microscale thermophoresis detects binding through changes in fluorescence in a small temperature gradient.)

The target in data set [1] is T2, human PD-L1 (Homo sapiens, UniProt Q9NZQ7).
T2 construct: hPD-L1 residues, 18–134, C-terminal His-tag; His-tag (C); made in house; host or cells: Escherichia coli BL21 (DE3)
Briefly: MicroScale Thermophoresis (MST) binding assay, human PD-L1. Particulars: hPD-L1.

Data set [2] deals with T3, hPD-1/hPD-L1 immune checkpoint (hPD-L1 aAPCs and Jurkat hPD-1 effector cells) (Homo sapiens, UniProt Q9NZQ7).
T3 construct: host or cells: CHO K-1 (hPD-L1 aAPCs) and Jurkat T cells (hPD-1 effector cells)
In words: hPD-1/hPD-L1 immune checkpoint blockade cell-based assay (Promega Blockade Bioassay).

In data set [3] the target is T4, PD-1/PD-L1 complex (hPD-L1 and hPD-1) (Homo sapiens, UniProt Q9NZQ7).
T4 construct: purchased Cis-Bio
In words: Homogeneous time-resolved fluorescence (HTRF) assay, Cis-Bio kit. The data set is classed as binding. For orientation: In TR-FRET formats the signal depends on donor and acceptor labels being close together.

Data set [4] addresses T2, human PD-L1. Briefly: 1H NMR binding assay. To be noted: molar ratio 1:1. On the procedure: The direct binding of the most prominent compounds 2k and 3d to the human PD-L1 was also confirmed with a ^1H NMR method (Figure S3).
Figure S2 ELISA assay results.
High-binding 96 well plates (Thermo Scientific, cat. 439454) were coated with 1.2 μg/ml (50 μL/well) of Fc-tagged human PD-1 (Recepton Sp. z o.o., cat. R1-001-1) and incubated overnight at 4 ◦C. The plates were warmed to room temperature, washed with wash buffer (1 x PBS, 0.05% Tween 20, pH 7.4) and blocked with 1 % BSA in 1 x PBS, pH 7.4 for 2 h. Standard curve was generated with 0.02 – 50 ug/mL His- and Fc- tagged human PD-L1 (Recepton Sp. z o.o., cat. R1-002-1). […] The bound ligand was detected with the addition of 50 μL/well biotinylated Anty-His antibody (Southern Biotech, cat. 4603-08) followed by 1 h incubation, wash steps and addition of 50 μL/well streptavidin-HRP (Thermo Scientific, cat. 21126). […] The absorbance readings were made on Tecan Spark at the wavelength 450 nm and the reference wavelength 655 nm. IC50 was calculated based on the Δ((A450-A655) from sample – (A450-A655) from background) readings fitted in the plot using a Hill’s […]
For NMR measurements, the buffer was exchanged by gel filtration to PBS pH 7.4. […] All spectra were recorded at 300 K using a Bruker Avance III 600 MHz spectrometer. […]

A further data set deals with T5, wtPD-1/PD-L1 complex (Homo sapiens, UniProt Q9NZQ7).
T5 construct: hPD-L1 residues, 18–134, C-terminal His-tag; His-tag (C); made in house; host or cells: Escherichia coli BL21 (DE3)
In words: AIDA-NMR with wild-type proteins. In kind it is binding. To be noted: wild-type PD-1.

Another data set deals with T6, N66A-PD-1/PD-L1 complex (Homo sapiens, UniProt Q9NZQ7).
T6 construct: hPD-L1 residues, 18–134, C-terminal His-tag; His-tag (C); made in house; host or cells: Escherichia coli BL21 (DE3)
Briefly: w-AIDA-NMR (weak antagonist-induced dissociation assay). In kind it is binding. Particulars: equimolar concentrations. An excerpt:
Because HTRF is prone to “false positives”, especially aggregators and autofluorophores, we validated the results using the w-AIDA-NMR assay developed by us. […] In the w-AIDA-NMR 2D experiment, ^15N mutated PD-1 gives a characteristic pattern of peaks (Figure 2A). Peak assignment is not necessary as we observe a relative change in the intensity and positions of the reference peaks upon the addition of ligand/inhibitors. Upon the formation of the complex with PD-L1, most of the cross-peaks in the ^1H–^15N HMQC spectrum of PD-1 became broader and less intense with some of the cross-peaks disappearing (Figure 2B). If the inhibitor is capable of disrupting the complex, the resulting spectrum should come back to the reference one of PD-1 alone, as tested inhibitors are PD-L1 binders. […]
Uniform ^15N labeling was obtained by expressing proteins in the M9 minimal medium containing ^15NH4Cl as the sole nitrogen source. […] All spectra were recorded at 300 K using a Bruker Avance III 600 MHz spectrometer equipped with the nitrogen cryoprobe. The ability of tested compounds to dissociate PD-L1/(wild type, wt or N66A)PD-1 was evaluated using the (weak) antagonist-induced dissociation assay (w-AIDA-NMR). […] During the experiment, the ^1H–^15N signals were monitored by SOFAST HMQC.

In data set [5] the test system is Jurkat PD-1 Effector Cells alone or in co-culture with CHO K-1 PD-L1 aAPCs. Briefly: Cytotoxicity / cell viability assay (tetrazolium reagent). In kind it is cell-based. Particulars: not toxic up to the stated final concentration.
A further data set deals with primary human T cells. Briefly: Flow cytometry of activation markers on primary T cells (PBMCs on hPD-L1 aAPCs). In kind it is cell-based. Particulars: 48 h. The procedure: The biological activity of the compound 2k was further verified on the primary T cells. For this, peripheral blood mononuclear cells (PBMCs) isolated from the blood of healthy donors were contacted with hPD-L1 aAPCs to provide TCR-mediated activation of T cells and the engagement of PD-1/PD-L1 immune checkpoint. The cells were then analyzed with flow cytometry following the gating for CD4^+ and CD8^+ T cells. The blockade of the PD-1/PD-L1 immune checkpoint was expected to increase the activation of T cells. In the experiment, atezolizumab and compound 2k were used. […] Because the prolonged activation of T cells leads to the increase of the expression of immune checkpoint molecules,[30] we have monitored the expression of PD-1 protein itself as an indicator of the late T cell activation and exhaustion. […] This confirms the bioactivity of the compound 2k in the context of primary T cells.
Blood samples from healthy donors were purchased from the Regional Center of Blood Donation and Blood Therapy in Krakow. PBMCs were isolated by a density gradient centrifugation using Pancoll human separating solutions (PAN-Biotech) and then resuspended in RPMI 1640 medium (Biowest) containing 10% FBS (Biowest).
PBMCs were added to the preseeded aAPCs at the density of 400 000 cells/well and incubated in the presence of compound 2k, DMSO, and with or without atezolizumab (5 μg/mL) as an anti-PD-L1 monoclonal antibody. After 48 h, cells were detached using TrypLe Select Enzyme (Thermo Fisher Scientific), collected into 5 mL round-bottom tubes, and washed with flow cytometry staining buffer (Thermo Fisher Scientific). For flow cytometry analysis, cells were stained using monoclonal antibodies: anti-CD69-APC, anti-CD4-FITC, anti-CD8-BV510, and anti-PD1-PECy7 (Becton Dickinson, BD). Following 20 min of incubation at room temperature, cells were washed, resuspended in PBS, and analyzed using a FACSCanto II flow cytometer (BD) and FACSDiva software (BD). The data analysis was carried out with FACSuite software (BD).
(Flow cytometry measures light scatter and fluorescence of single cells or particles in a stream.)

The target of another data set is T7, human PD-1/PD-L1 complex (Homo sapiens, UniProt Q9NZQ7).
T7 construct: Fc; purchased Recepton Sp. z o.o; R1-002-1 (PD-L1); R1-001-1 (PD-1)
In words: Competitive ELISA. The data set is classed as binding. To be noted: dissociation of human PD-1/PD-L1 complex.

Broadly, the Kd is the equilibrium constant for the complex coming apart. A lower Kd goes with a tighter complex. As a reminder, the EC50 is the concentration needed to bring the measured effect to its halfway point. Low values mean greater potency, high ones weaker potency. The IC50 is the concentration that gives 50% inhibition.

Molecules are shown by their SMILES. Where “and” joins values, the source holds several entries; their conditions need not be identical. Equal entries are not always repeated. Entries after “also recorded” stand apart in the source; their conditions may differ.

T3 sequence (Q9NZQ7 19-290): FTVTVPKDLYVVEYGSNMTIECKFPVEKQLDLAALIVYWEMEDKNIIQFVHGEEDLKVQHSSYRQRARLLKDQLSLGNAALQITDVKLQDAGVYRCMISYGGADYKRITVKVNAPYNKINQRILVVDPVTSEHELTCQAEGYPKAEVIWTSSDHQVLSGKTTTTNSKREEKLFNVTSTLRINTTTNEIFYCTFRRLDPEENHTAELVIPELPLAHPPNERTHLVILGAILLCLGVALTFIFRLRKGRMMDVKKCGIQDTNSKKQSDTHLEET
T6 sequence (Q9NZQ7 18-134, stated change not applied, one chain of several): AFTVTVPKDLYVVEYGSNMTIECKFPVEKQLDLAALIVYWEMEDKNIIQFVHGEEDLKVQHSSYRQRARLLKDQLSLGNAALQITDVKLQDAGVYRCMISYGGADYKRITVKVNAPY
T2 sequence (Q9NZQ7 18-134): as the sequence (Q9NZQ7 18-134, stated change not applied, one chain of several) above
T5 sequence (Q9NZQ7 18-134, one chain of several): as the sequence (Q9NZQ7 18-134, stated change not applied, one chain of several) above
T1 sequence (Q9EP73 19-134): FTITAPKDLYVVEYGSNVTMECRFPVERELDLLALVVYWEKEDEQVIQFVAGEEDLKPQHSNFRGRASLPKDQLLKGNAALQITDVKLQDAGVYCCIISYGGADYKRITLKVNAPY
T4 sequence (Q9NZQ7 19-238 limits assumed, one chain of several): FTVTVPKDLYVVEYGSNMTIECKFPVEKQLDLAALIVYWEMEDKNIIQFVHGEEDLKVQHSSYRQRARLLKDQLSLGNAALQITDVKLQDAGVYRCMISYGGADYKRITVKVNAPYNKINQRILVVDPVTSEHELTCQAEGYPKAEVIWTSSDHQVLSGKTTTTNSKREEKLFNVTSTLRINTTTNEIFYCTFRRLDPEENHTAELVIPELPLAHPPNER
T7 sequence (Q9NZQ7 19-238 limits assumed, one chain of several): as above

As to `C[C@@H](O)[C@H](NC(=O)N[C@@H](CC(N)=O)c1nc([C@@H](N)CO)no1)C(=O)O` [CA-170], in the data set on PD-L1, the “direct binding to PD-L1” value is reported as “not a direct PD-L1-binder”.
`CC(=O)NCCNCc1ccc(OCc2cccc(-c3ccccc3)c2Br)c(Br)c1` [2g, N-(2-((3-Bromo-4-((2-bromo-[1,1′-biphenyl]-3-yl)methoxy)benzyl)amino)ethyl)acetamide]: the “MST KD” value on murine PD-L1 is “no activity”. Also, the Kd at human PD-L1 [1] was 3.17 nM and 3.2 nM. Moreover, the “toxicity of the compound observed above concentration” value in [2] (EC50 estimated on partial data because of it) is on record as “above 10 μM”. In addition, a half-maximal effect in [2] (cell based assay, Table S1) (EC50) was put at 6700 ± 1100 nM. In data set [3], this compound showed an IC50 of 12.2 ± 0.2 nM.
Take `N#Cc1cc(COc2cc(OCc3cccc(-c4ccccc4)c3Br)c(Cl)cc2CN2C[C@@H](O)C[C@H]2C(=O)O)ccn1` [3d]: the “solubility in DMSO/water conditions” value in data set [2] (disallowed data collection for the two highest concentrations) is listed as “solubility problems”. On human PD-L1 [4], the “direct binding to hPD-L1 (1H NMR)” value is “caused flattening of 2D spectra characteristic for the dimerization; also recorded: caused a characteristic dimerization of hPD-L1”.
As for `BrCc1cccc(-c2ccccc2)c1Br` [1a, 2-bromo-3-(bromomethyl)-1,1′-biphenyl], the “dissociation of the wtPD-1/PD-L1 complex” value on wtPD-1/PD-L1 complex is “not able to dissociate”. Besides, the “dissociation of the mutant N66A-PD-1/PD-L1 complex” value on N66A-PD-1/PD-L1 complex is listed as “capable of dissociating; also recorded: all PD-1 peaks are restored; also recorded: dissociated”.
The matching figures for `OCc1cccc(-c2ccccc2)c1F` [1c]: “not potent enough to dissociate” and “capable of dissociating; also recorded: all PD-1 peaks are restored; also recorded: dissociated”.
Consider `O=C(O)[C@@H]1CCCCN1Cc1ccc(OCc2cccc(-c3ccccc3)c2Br)c(Br)c1` [2k, (S)-1-(3-Bromo-4-((2-bromo-[1,1′-biphenyl]-3-yl)methoxy)benzyl)piperidine-2-carboxylic Acid], for which the “MST KD” value on murine PD-L1 was “no activity”. Moreover, the Kd at human PD-L1 [1] is 4.04 nM and 4 nM. In data set [5], the “toxic concentration in cell viability assay” value was over 100 µM. Further, in data set [2] (at a 50 μM concentration), the “level of the Jurkat T cell activation” value came out at 2.1 fold. Also, in the data set with primary human T cells, the “expression of PD-1 receptor on the surface of CD4+ and CD8+ T cells” value is given as “significant increase”; the “expression of early T-cell activation marker CD69” value is “Neither of the two molecules was able to increase”. On human PD-1/PD-L1 complex, this compound registered a half-maximal inhibitory concentration (IC50) of 1.47 ± 0.05 nM. For the same compound, the “direct binding to hPD-L1 (1H NMR)” value at human PD-L1 [4] was “caused flattening of 2D spectra characteristic for the dimerization; also recorded: caused a characteristic dimerization of hPD-L1”. Besides, the “dissociation of the wtPD-1/PD-L1 complex” value on wtPD-1/PD-L1 complex was “dissociated”.
